Source: US20260209214A1, “LSD1 MODULATORS” (RECURSION PHARMACEUTICALS, INC., priority 2022, published 2026)

The molecules below were run against Recombinant human LSD1 (Homo sapiens, UniProt O60341) (assay: LSD1 inhibition assay (HTRF LSD1 Histone H3K4 mono-demethylation assay, me1->me0)). Conditions: 20 nM recombinant human LSD1, 95 nM H3K4(me1) biotinylated peptide, 15 min preincubation, 60 min at 25° C., read-out: LSD1 inhibition IC50 (nM range).
Assay type: biochemical
Outline: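 Recombinant human LSD1 (20 nM) pre-incubated 15 min with 10 semi-log compound doses, then 95 nM biotinylated H3K4me1 peptide for 60 min at 25 °C in pH 8.5 Tris/NaCl buffer with 10 μM FAD, 1 mM DTT. HTRF me0-antibody read after 90 min; IC50 from 4-parameter fit.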

| SMILES | IC50 [nM] |
| --- | --- |
| N#Cc1ccc(-c2cccc(CN3[C@@H]4CC[C@H]3[C@@H](N)C4)c2C2CCC2)cc1F (racemic) [Example 218, 3'-{[(1S,2S,4R)-2-amino-7-azabicyclo[2.2.1]heptan-7-yl]methyl}-2'-cyclobutyl-3-fluoro-[1,1'-biphenyl]-4-carbonitrile] | 10 to 25 |
| C[C@]1(N)CCN(Cc2cccc(-c3ccc(C#N)c(F)c3)c2-c2ccns2)C1 [Example 302, 3'-{[(3S)-3-amino-3-methylpyrrolidin-1-yl]methyl}-3-fluoro-2'-(1,2-thiazol-5-yl)-[1,1'-biphenyl]-4-carbonitrile] | < 10 |
| N#Cc1ccc(-c2cc(F)cc(C[C@H]3CNCCO3)c2-c2ccns2)cc1F (single isomer, unassigned) [Example 6] | 10 to 25 |
| C[C@@]1(O)C[C@H]2CN(c3ccc(CC4CNCCO4)cc3-c3ccc(C#N)c(F)c3)C[C@H]2C1 (mixture of isomers) [Example 114, 2′-[(3aR,5S,6aS)-5-hydroxy-5-methyl-octahydrocyclopenta[c]pyrrol-2-yl]-3-fluoro-5′-[(morpholin-2-yl)methyl]-[1,1′-biphenyl]-4-carbonitrile] | 100 to 1000 |
| N#Cc1ccc(-c2cccc(CN3[C@@H]4CC[C@H]3[C@@H](N)C4)c2C2CC2)cc1F (racemic) [Example 176, 3'-{[(1S,2S,4R)-2-amino-7-azabicyclo[2.2.1]heptan-7-yl]methyl}-2'-cyclopropyl-3-fluoro-[1,1'-biphenyl]-4-carbonitrile] | 25 to 100 |
| N#Cc1ccc(-c2cccc(CN3[C@H]4CC[C@@H]3[C@H](N)C4)c2-c2ccns2)cc1 (single isomer, unassigned) [Example 187] | 10 to 25 |
| N#Cc1ccc(-c2ccc(F)c(CN3[C@H]4CC[C@@H]3[C@H](N)C4)c2OC(F)F)cc1F (single isomer, unassigned) [Example 169] | 10 to 25 |

More lines, now with the values ahead:

| IC50 [nM] | SMILES |
| --- | --- |
| 25 to 100 | N#Cc1ccc(-c2cccc(CN3C[C@]4(N)CC[C@H]3C4)c2C2CC2)cc1 [Example 184, 3'-{[(1S,4S)-4-amino-2-azabicyclo[2.2.1]heptan-2-yl]methyl}-2'-cyclopropyl-[1,1'-biphenyl]-4-carbonitrile] |
| 100 to 1000 | Cc1ccncc1-c1ccc(CC2CNCCO2)cc1-c1ccc(C#N)c(F)c1 (centres unmarked) [Example 124, 3-fluoro-2′-(4-methylpyridin-3-yl)-5′-[(morpholin-2-yl)methyl]-[1,1′-biphenyl]-4-carbonitrile] |
| > 1000 | N#Cc1ccc(-c2cccc(CN3CC(F)(F)[C@@]34CCNC4)c2Cl)cc1F [Example 337, 2'-chloro-3'-{[(4S)-3,3-difluoro-1,6-diazaspiro[3.4]octan-1-yl]methyl}-3-fluoro-[1,1'-biphenyl]-4-carbonitrile] |
| 10 to 25 | N#Cc1ccc(-c2cccc(CN3C[C@@H]4CNC[C@H]4C3)c2-c2cncs2)cc1F [Example 324, 3'-{[(3aS,6aS)-octahydropyrrolo[3,4-c]pyrrol-2-yl]methyl}-3-fluoro-2'-(1,3-thiazol-5-yl)-[1,1'-biphenyl]-4-carbonitrile] |
| 100 to 1000 | Cc1cc(CNCC2CCCN(C)C2)c(Cl)c(-c2ccc(C#N)c(F)c2)c1 (centres unmarked) [Example 346, 2'-chloro-3-fluoro-5'-methyl-3'-({[(1-methylpiperidin-3-yl)methyl]amino}methyl)-[1,1'-biphenyl]-4-carbonitrile] |
| 10 to 25 | N#Cc1ccc(-c2cccc(CN3CCC4(CCNC4)C3)c2-c2cnco2)cc1 (centres unmarked) [Example 325, 3'-({2,7-diazaspiro[4.4]nonan-2-yl}methyl)-2'-(1,3-oxazol-5-yl)-[1,1'-biphenyl]-4-carbonitrile] |
| 100 to 1000 | CC1(O)CC2(CN(c3ccc(CC4CNCCO4)cc3-c3ccc(C#N)c(F)c3)C2)C1 (centres unmarked) [Example 165, 3-fluoro-2′-{6-hydroxy-6-methyl-2-azaspiro[3.3]heptan-2-yl}-5′-[(morpholin-2-yl)methyl]-[1,1′-biphenyl]-4-carbonitrile] |
